According to patent publication US20080009418A1, “Selective Inhibitors” (Alchemia LTD., priority 2004, published 2008):

What was measured:
[1] = target: T1, Human κ-Opioid (KOP) (Homo sapiens, UniProt P41145); test: Radioligand binding, human κ-opioid (KOP) membranes, filtration, [3H]-Diprenorphine; conditions: compound at 10 μM, [3H]-Diprenorphine
T1 construct: purchased Perkin Elmer Biosignal
How it was run: (§1)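 Membranes from cloned human receptors were incubated with compound and radioligand for 1 hour at room temperature. Bound ligand was collected on 0.3% PEI-soaked filters, washed with cold 50 mM Tris-HCl pH 7.4, and counted by scintillation. Percent inhibition was computed against DMSO totals and reference-ligand nonspecific wells.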

[2] = target: T2, Human neuropeptide Y (NPY-Y1) (Homo sapiens, UniProt P25929); test: Radioligand binding, human neuropeptide Y NPY-Y1 membranes, FlashPlate, [125I]-PYY; conditions: compound at 10 μM, [125I]-PYY
T2 construct: purchased Perkin Elmer Biosignal
T2 sequence (P25929 1-384): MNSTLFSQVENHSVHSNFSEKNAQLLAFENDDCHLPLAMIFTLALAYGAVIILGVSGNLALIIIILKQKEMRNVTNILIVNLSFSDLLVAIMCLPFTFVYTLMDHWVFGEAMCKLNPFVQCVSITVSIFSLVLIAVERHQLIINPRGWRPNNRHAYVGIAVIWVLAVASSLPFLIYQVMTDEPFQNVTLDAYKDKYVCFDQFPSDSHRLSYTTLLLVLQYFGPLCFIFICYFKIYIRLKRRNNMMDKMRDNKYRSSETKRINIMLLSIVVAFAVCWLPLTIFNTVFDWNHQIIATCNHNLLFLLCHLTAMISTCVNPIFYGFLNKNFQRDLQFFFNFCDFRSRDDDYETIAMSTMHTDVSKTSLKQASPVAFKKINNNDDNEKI
How it was run: (§2)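 Cloned human receptor membranes were coated onto FlashPlate wells and incubated with radioligand and compound (added from a 0.5 mM DMSO daughter plate) for 1 hour at room temperature in the dark. Scintillation counting gave percent inhibition, with DMSO defining total and reference ligand defining non-specific binding.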

[3] = target: T3, Human opioid (ORL1) (Homo sapiens, UniProt P41146); test: Radioligand binding, human opioid ORL1 membranes, FlashPlate, [125I]-Nociceptin; conditions: compound at 10 μM, [125I]-Nociceptin
T3 construct: purchased Perkin Elmer Biosignal
How it was run: as §2

[4] = target: T4, Human Melanocortin (MC4) (Homo sapiens, UniProt P32245); test: Radioligand binding, human melanocortin MC4 membranes, FlashPlate, [125I]-NDP-αMSH; conditions: compound at 10 μM, [125I]-NDP-αMSH
T4 construct: purchased Perkin Elmer Biosignal
How it was run: as §2

[5] = target: T5, Human neurokinin (NK1) (Homo sapiens, UniProt P25103); test: Radioligand binding, human neurokinin NK1 membranes, filtration, [125I]-Substance P; conditions: compound at 10 μM, [125I]-Substance P
T5 construct: purchased Perkin Elmer Biosignal
How it was run: as §1

[6] = target: T6, Human δ-opioid (DOP) (Homo sapiens, UniProt P41143); test: Radioligand binding, human δ-opioid (DOP) membranes, FlashPlate, [3H]-Bremazocine; conditions: compound at 10 μM, [3H]-Bremazocine
T6 construct: purchased Perkin Elmer Biosignal
How it was run: as §2

[7] = target: T7, Mouse urotensin (mUR2) (Mus musculus, UniProt Q8VIH9); test: Radioligand binding, mouse urotensin mUR2 membranes, FlashPlate, [125I]-Urotensin II; conditions: compound at 10 μM, [125I]-Urotensin II
T7 construct: purchased Perkin Elmer Biosignal
T7 sequence (Q8VIH9 1-385): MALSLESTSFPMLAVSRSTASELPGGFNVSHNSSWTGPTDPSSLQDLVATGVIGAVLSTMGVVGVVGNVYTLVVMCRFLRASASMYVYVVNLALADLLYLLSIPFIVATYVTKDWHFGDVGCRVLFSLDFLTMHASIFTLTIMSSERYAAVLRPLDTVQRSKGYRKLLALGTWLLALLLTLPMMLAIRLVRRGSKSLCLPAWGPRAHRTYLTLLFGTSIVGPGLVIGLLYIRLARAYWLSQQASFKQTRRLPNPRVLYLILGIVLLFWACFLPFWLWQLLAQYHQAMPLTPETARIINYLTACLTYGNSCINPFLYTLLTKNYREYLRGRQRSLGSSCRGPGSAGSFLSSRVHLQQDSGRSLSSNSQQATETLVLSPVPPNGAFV
How it was run: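 Cloned mouse urotensin (mUR2) receptor membranes from Perkin Elmer Biosignal were immobilized in FlashPlate microplates using a proprietary coating. Each well got 19.5 μl buffer, then 0.5 μl of DMSO, reference ligand, or compound. Adding 5 μl of [125I]-Urotensin II, diluted to 5× final concentration in binding buffer, started binding. Plates were sealed with TopSeal-A and incubated 1 hour at room temperature in the dark. Wells were counted for 30 seconds each on a TopCount after a 60-second delay, and percentage inhibition was calculated.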

[8] = target: T8, Human melanin-concentrating hormone (MCH1) (Homo sapiens, UniProt Q99705); test: Radioligand binding, human melanin-concentrating hormone MCH1 membranes, FlashPlate, [125I]-S36057; conditions: compound at 10 μM
T8 construct: purchased Perkin Elmer Biosignal
How it was run: as §2

[9] = target: T9, Human melanocortin (MC5) (Homo sapiens, UniProt P33032); test: Radioligand binding, human melanocortin MC5 membranes, FlashPlate, [125I]-NDP-αMSH; conditions: compound at 10 μM, [125I]-NDP-αMSH
T9 construct: purchased Perkin Elmer Biosignal
How it was run: as §2

[10] = target: T10, Human μ-opioid (MOP) (Homo sapiens, UniProt P35372); test: Radioligand binding, human μ-opioid (MOP) membranes, FlashPlate, [3H]-Naloxone; conditions: compound at 10 μM, [3H]-Naloxone
T10 construct: purchased Perkin Elmer Biosignal
How it was run: as §2

[11] = target: T11, Human Melanocortin (MC3) (Homo sapiens, UniProt P41968); test: Radioligand binding, human melanocortin MC3 membranes, FlashPlate, [125I]-NDP-αMSH; conditions: compound at 10 μM, [125I]-NDP-αMSH
T11 construct: purchased Perkin Elmer Biosignal
How it was run: as §2

T5 sequence (P25103 whole entry): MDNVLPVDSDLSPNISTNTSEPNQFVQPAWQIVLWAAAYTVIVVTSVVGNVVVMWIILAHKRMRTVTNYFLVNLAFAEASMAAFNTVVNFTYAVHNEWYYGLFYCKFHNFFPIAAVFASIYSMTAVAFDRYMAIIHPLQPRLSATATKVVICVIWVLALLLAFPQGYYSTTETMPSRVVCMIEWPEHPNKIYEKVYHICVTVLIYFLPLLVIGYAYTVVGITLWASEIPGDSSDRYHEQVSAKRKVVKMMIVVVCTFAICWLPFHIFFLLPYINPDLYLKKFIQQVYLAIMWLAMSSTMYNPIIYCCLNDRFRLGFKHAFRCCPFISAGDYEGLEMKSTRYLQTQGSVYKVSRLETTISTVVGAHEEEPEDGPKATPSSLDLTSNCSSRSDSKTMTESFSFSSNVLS
T8 sequence (Q99705 whole entry): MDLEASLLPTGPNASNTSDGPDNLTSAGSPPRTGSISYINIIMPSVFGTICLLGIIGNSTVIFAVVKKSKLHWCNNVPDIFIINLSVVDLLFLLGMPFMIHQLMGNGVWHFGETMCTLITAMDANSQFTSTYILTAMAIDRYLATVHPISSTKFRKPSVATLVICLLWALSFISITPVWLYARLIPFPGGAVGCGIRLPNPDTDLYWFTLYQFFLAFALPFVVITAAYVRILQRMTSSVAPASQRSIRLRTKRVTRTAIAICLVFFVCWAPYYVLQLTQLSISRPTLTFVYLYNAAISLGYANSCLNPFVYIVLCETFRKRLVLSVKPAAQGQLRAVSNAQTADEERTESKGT
T4 sequence (P32245 whole entry): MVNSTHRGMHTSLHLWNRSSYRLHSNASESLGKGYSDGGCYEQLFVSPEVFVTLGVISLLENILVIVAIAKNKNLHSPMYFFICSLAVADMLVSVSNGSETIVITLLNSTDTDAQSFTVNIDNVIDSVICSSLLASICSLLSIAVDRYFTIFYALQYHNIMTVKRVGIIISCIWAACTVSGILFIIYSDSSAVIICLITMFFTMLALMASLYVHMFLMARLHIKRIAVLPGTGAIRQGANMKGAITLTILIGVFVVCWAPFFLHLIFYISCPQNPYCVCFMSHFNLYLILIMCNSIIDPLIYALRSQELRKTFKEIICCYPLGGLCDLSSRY
T10 sequence (P35372 whole entry): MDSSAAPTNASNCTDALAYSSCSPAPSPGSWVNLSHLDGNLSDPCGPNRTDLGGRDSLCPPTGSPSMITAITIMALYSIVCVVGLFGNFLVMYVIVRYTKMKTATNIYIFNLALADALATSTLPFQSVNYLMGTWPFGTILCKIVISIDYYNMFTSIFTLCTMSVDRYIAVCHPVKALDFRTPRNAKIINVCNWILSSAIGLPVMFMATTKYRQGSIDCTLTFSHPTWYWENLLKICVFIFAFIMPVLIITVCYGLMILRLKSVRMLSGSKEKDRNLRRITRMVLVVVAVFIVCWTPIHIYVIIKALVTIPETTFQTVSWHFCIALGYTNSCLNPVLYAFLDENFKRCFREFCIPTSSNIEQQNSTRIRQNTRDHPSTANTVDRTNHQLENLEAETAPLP
T1 sequence (P41145 whole entry): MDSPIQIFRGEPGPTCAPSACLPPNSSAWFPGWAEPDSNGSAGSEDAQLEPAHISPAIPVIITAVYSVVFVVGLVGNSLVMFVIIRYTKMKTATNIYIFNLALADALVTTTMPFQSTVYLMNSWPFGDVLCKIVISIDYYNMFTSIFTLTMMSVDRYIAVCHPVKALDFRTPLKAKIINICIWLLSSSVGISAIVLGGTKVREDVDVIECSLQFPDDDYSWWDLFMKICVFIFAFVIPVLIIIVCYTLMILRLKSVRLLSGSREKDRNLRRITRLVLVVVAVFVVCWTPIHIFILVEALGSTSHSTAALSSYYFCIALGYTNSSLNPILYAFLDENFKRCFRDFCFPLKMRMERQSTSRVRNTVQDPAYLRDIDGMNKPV
T6 sequence (P41143 whole entry): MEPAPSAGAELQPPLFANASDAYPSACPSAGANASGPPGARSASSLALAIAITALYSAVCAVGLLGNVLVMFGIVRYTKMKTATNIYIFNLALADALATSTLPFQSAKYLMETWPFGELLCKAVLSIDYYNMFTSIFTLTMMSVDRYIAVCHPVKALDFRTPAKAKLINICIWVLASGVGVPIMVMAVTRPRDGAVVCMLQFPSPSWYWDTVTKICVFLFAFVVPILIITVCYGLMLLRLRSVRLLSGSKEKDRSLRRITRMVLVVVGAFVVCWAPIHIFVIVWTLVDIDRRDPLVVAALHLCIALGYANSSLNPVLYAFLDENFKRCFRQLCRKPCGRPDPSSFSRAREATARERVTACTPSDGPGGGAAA
T9 sequence (P33032 whole entry): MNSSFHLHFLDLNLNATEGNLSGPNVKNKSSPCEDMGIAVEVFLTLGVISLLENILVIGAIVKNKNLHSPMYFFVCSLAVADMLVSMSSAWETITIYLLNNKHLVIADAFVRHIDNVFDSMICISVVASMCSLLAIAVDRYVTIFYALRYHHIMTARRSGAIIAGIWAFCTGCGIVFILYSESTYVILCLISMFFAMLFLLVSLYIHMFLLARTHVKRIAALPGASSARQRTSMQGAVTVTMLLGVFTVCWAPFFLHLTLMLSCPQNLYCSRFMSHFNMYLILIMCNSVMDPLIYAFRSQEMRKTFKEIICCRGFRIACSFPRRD
T11 sequence (P41968 whole entry): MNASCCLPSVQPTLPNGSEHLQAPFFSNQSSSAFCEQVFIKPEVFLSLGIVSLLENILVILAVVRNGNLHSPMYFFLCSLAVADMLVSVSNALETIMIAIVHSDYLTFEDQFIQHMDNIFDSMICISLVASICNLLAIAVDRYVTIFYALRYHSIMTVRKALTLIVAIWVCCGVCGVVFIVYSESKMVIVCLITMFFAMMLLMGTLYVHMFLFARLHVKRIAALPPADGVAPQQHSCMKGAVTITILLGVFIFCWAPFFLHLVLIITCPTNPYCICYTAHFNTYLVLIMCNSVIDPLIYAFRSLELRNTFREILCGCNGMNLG
T3 sequence (P41146 whole entry): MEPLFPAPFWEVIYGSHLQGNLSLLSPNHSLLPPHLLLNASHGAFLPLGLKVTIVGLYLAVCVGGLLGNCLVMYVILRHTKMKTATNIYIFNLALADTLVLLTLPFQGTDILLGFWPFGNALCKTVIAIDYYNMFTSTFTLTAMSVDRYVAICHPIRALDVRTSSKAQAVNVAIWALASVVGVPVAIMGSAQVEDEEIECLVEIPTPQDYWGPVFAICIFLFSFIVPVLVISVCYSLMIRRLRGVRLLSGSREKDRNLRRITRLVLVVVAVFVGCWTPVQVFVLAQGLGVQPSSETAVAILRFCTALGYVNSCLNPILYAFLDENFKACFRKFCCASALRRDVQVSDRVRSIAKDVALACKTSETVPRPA

Structure (SMILES): COC[C@H]1OC(OCc2ccc(-c3ccccc3)cc2)[C@H](NC(=O)CCNC(=N)N)[C@@H](OCc2cccc(O)c2)[C@@H]1O (stereo partly shown) [compound 130]
- A2 radioligand binding, percentage inhibition [1]: − (“−” indicates less than 50% inhibition at 10 μM)
- A9 radioligand binding, percentage inhibition [2]: − (“−” indicates less than 50% inhibition at 10 μM)
- A10 radioligand binding, percentage inhibition [3]: − (“−” indicates less than 50% inhibition at 10 μM)
- A4 radioligand binding, percentage inhibition [4]: − (“−” indicates less than 50% inhibition at 10 μM)
- A8 radioligand binding, percentage inhibition [5]: − (“−” indicates less than 50% inhibition at 10 μM)
- A1 radioligand binding, percentage inhibition [6]: − (“−” indicates less than 50% inhibition at 10 μM)
- A11 radioligand binding, percentage inhibition [7]: − (“−” indicates less than 50% inhibition at 10 μM)
- A6 radioligand binding, percentage inhibition ([8]; [125I]-S36057): − (“−” indicates less than 50% inhibition at 10 μM)
- A5 radioligand binding, percentage inhibition [9]: − (“−” indicates less than 50% inhibition at 10 μM)
- A7 radioligand binding, percentage inhibition [10]: + (“+” indicates greater than 50% inhibition at 10 μM)
- A3 radioligand binding, percentage inhibition [11]: − (“−” indicates less than 50% inhibition at 10 μM)

Structure (SMILES): CSC1OC(COCc2ccccc2)C(O)C(OCc2ccc3ccccc3c2)C1NC(=O)CNC(=N)N (stereo not shown) [compound 302]
- A2: inhibition of radioligand binding, human κ-opioid (KOP) [1]: − (“−” indicates less than 50% inhibition at 10 μM)
- A9: inhibition of radioligand binding, human neuropeptide Y (NPY-Y1) [2]: − (“−” indicates less than 50% inhibition at 10 μM)
- A10: inhibition of radioligand binding, human opioid (ORL1) [3]: − (“−” indicates less than 50% inhibition at 10 μM)
- A4: inhibition of radioligand binding, human melanocortin (MC4) [4]: + (“+” indicates greater than 50% inhibition at 10 μM)
- A8: inhibition of radioligand binding, human neurokinin (NK1) [5]: + (“+” indicates greater than 50% inhibition at 10 μM)
- A1: inhibition of radioligand binding, human δ-opioid (DOP) [6]: − (“−” indicates less than 50% inhibition at 10 μM)
- A11: inhibition of radioligand binding, mouse urotensin (mUR2) [7]: − (“−” indicates less than 50% inhibition at 10 μM)
- A6: inhibition of radioligand binding, human melanin-concentrating hormone (MCH1) ([8]; [125I]-S36057): − (“−” indicates less than 50% inhibition at 10 μM)
- A5: inhibition of radioligand binding, human melanocortin (MC5) [9]: + (“+” indicates greater than 50% inhibition at 10 μM)
- A7: inhibition of radioligand binding, human μ-opioid (MOP) [10]: − (“−” indicates less than 50% inhibition at 10 μM)
- A3: inhibition of radioligand binding, human melanocortin (MC3) [11]: − (“−” indicates less than 50% inhibition at 10 μM)

Structure (SMILES): NCCCC(=O)NC1C(OCc2ccc(Cl)cc2)OC(COCc2ccc(Cl)cc2)C(O)C1OCc1ccc(Cl)cc1 (single isomer, unassigned) [compound 494]
- A2: inhibition of radioligand binding, human κ-opioid (KOP) [1]: − (“−” indicates less than 50% inhibition at 10 μM)
- A9: inhibition of radioligand binding, human neuropeptide Y (NPY-Y1) [2]: − (“−” indicates less than 50% inhibition at 10 μM)
- A10: inhibition of radioligand binding, human opioid (ORL1) [3]: + (“+” indicates greater than 50% inhibition at 10 μM)
- A4: inhibition of radioligand binding, human melanocortin (MC4) [4]: + (“+” indicates greater than 50% inhibition at 10 μM)
- A8: inhibition of radioligand binding, human neurokinin (NK1) [5]: + (“+” indicates greater than 50% inhibition at 10 μM)
- A1: inhibition of radioligand binding, human δ-opioid (DOP) [6]: − (“−” indicates less than 50% inhibition at 10 μM)
- A11: inhibition of radioligand binding, mouse urotensin (mUR2) [7]: − (“−” indicates less than 50% inhibition at 10 μM)
- A6: inhibition of radioligand binding, human melanin-concentrating hormone (MCH1) ([8]; [125I]-S36057): + (“+” indicates greater than 50% inhibition at 10 μM)
- A5: inhibition of radioligand binding, human melanocortin (MC5) [9]: + (“+” indicates greater than 50% inhibition at 10 μM)
- A7: inhibition of radioligand binding, human μ-opioid (MOP) [10]: − (“−” indicates less than 50% inhibition at 10 μM)
- A3: inhibition of radioligand binding, human melanocortin (MC3) ([11]; 10 µM): + (“+” indicates greater than 50% inhibition at 10 μM)

Structure (SMILES): N=C(N)NCC(=O)NC1C(OCc2ccc(Cl)cc2)OC(COCc2ccc3ccccc3c2)C(O)C1OCc1ccc2ccccc2c1 (stereo not shown) [compound 420]
- A2: inhibition of radioligand binding ([1]; human KOP membranes): − (“−” indicates less than 50% inhibition at 10 μM)
- A9: inhibition of radioligand binding ([2]; human NPY-Y1 membranes): − (“−” indicates less than 50% inhibition at 10 μM)
- A10: inhibition of radioligand binding ([3]; human ORL1 membranes): + (“+” indicates greater than 50% inhibition at 10 μM)
- A4: inhibition of radioligand binding ([4]; human MC4 membranes): + (“+” indicates greater than 50% inhibition at 10 μM)
- A8: inhibition of radioligand binding ([5]; human NK1 membranes): + (“+” indicates greater than 50% inhibition at 10 μM)
- A1: inhibition of radioligand binding ([6]; human DOP membranes): − (“−” indicates less than 50% inhibition at 10 μM)
- A11: inhibition of radioligand binding ([7]; mouse mUR2 membranes): − (“−” indicates less than 50% inhibition at 10 μM)
- A6: inhibition of radioligand binding ([8]; [125I]-S36057, human MCH1 membranes): − (“−” indicates less than 50% inhibition at 10 μM)
- A5: inhibition of radioligand binding ([9]; human MC5 membranes): + (“+” indicates greater than 50% inhibition at 10 μM)
- A7: inhibition of radioligand binding ([10]; human MOP membranes): − (“−” indicates less than 50% inhibition at 10 μM)
- A3: inhibition of radioligand binding ([11]; human MC3 membranes): + (“+” indicates greater than 50% inhibition at 10 μM)

Structure (SMILES): COCC1OC(OCc2ccc(Cl)cc2)C(NC(=O)CCCN)C(OCc2ccc3ccccc3c2)C1O (stereo not shown) [compound 212]
- A2: inhibition of radioligand binding ([1]; filtration): − (“−” indicates less than 50% inhibition at 10 μM)
- A9: inhibition of radioligand binding ([2]; FlashPlate): − (“−” indicates less than 50% inhibition at 10 μM)
- A10: inhibition of radioligand binding ([3]; FlashPlate): − (“−” indicates less than 50% inhibition at 10 μM)
- A4: inhibition of radioligand binding ([4]; FlashPlate): − (“−” indicates less than 50% inhibition at 10 μM)
- A8: inhibition of radioligand binding ([5]; filtration): + (“+” indicates greater than 50% inhibition at 10 μM)
- A1: inhibition of radioligand binding ([6]; FlashPlate): − (“−” indicates less than 50% inhibition at 10 μM)
- A11: inhibition of radioligand binding ([7]; FlashPlate): − (“−” indicates less than 50% inhibition at 10 μM)
- A6: inhibition of radioligand binding ([8]; [125I]-S36057, FlashPlate): − (“−” indicates less than 50% inhibition at 10 μM)
- A5: inhibition of radioligand binding ([9]; FlashPlate): + (“+” indicates greater than 50% inhibition at 10 μM)
- A7: inhibition of radioligand binding ([10]; FlashPlate): − (“−” indicates less than 50% inhibition at 10 μM)
- A3: inhibition of radioligand binding ([11]; FlashPlate): − (“−” indicates less than 50% inhibition at 10 μM)
